Assay results taken from US10766869B2, “Triazoles for the treatment of demyelinating dieases” (Vertex Pharmaceuticals Incorporated, priority 2015, dated 2020).
Where two headings read alike, the source gives them in different places.

Test system: primary rat mixed cortical cells
Experiment: In vitro myelination assay (MBP positive myelin strands, fold myelin pixels above background)
Format: cell-based
Details: Rattus norvegicus; for fold induction at 1 µM: 1.0 μM compound; for fold induction at 10 µM: 10.0 μM compound
Summary of the method: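 Myelination read as total MBP-immunopositive strand pixels per well, imaged at 10× after fixation on day 14 and expressed relative to untreated wells, at 1.0 and 10.0 μM. Cells: dissociated postnatal day 1 rat cortex, cultured two weeks with compound, re-dosed at days 6 and 10.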

[1] = relative to baseline of no added compound, read-out: Fold myelin pixels above background, 1.0 μM
[2] = relative to baseline of no added compound, read-out: Fold myelin pixels above background, 10.0 μM
[3] = read-out: Fold myelin pixels above background relative to baseline of no added compound
[4] = relative to baseline of no added compound, read-out: Fold myelin pixels above background

For `Cc1cc(Nc2ncn(-c3ccccc3)n2)cc(N2CCNC(CO)C2)c1` (stereo not shown) [Compound 59, [4-[3-methyl-5-[(1-phenyl-1,2,4-triazol-3-yl)amino]phenyl]piperazin-2-yl]methanol], which fold induction at 1 µM [1] is on record?
The fold induction at 1 µM was 100 to 1000.

And the fold induction at 10 µM [2]?
The fold induction at 10 µM was 100 to 1000.

For `COC1CCN(C2CCN(c3cc(C)cc(Nc4ncn(-c5cc(F)cc(F)c5)n4)c3)CC2)CC1` [Compound 1068, 1-(3,5-difluorophenyl)-N-[3-[4-(4-methoxy-1-piperidyl)-1-piperidyl]-5-methyl-phenyl]-1,2,4-triazol-3-amine], which fold induction at 1 µM [3] is on record?
Its fold induction at 1 µM is 10 to 100.

What about the fold induction at 10 µM [3] of the same compound?
The fold induction at 10 µM was 10 to 100.

With `Cc1cc(Nc2ncn(-c3cc(F)cc(F)c3)n2)cc(N2CCN(CC(O)CN(C)C)CC2)c1` (stereo not shown) [Compound 1078, 1-[4-[3-[[1-(3,5-difluorophenyl)-1,2,4-triazol-3-yl]amino]-5-methyl-phenyl]piperazin-1-yl]-3-(dimethylamino)propan-2-ol] as the compound, how does the fold induction at 1 µM [3] read?
Its fold induction at 1 µM is 1 to 10.

And the fold induction at 10 µM [3]?
The fold induction at 10 µM was at most 1.

For `CC(=O)N1CCC(Oc2cc(C)cc(Nc3ncn(-c4ccc(F)c(F)c4)n3)c2)CC1` [Compound 626, 1-[4-[3-[[1-(3,4-difluorophenyl)-1,2,4-triazol-3-yl]amino]-5-methyl-phenoxy]-1-piperidyl]ethanone], which fold induction at 1 µM [4] is on record?
Its fold induction at 1 µM is 10 to 100.

What about the fold induction at 10 µM [4] of the same compound?
Its fold induction at 10 µM is at most 1.

`Cc1cc(N2CC(N3CCOCC3)C2)cc(Nc2ncn(-c3cc(F)cc(F)c3)n2)n1` [Compound 616, N-[1-(3,5-difluorophenyl)-1,2,4-triazol-3-yl]-6-methyl-4-(3-morpholinoazetidin-1-yl)pyridin-2-amine] was tested. Which fold induction at 1 µM [4] did it give?
Its fold induction at 1 µM is 1 to 10.

And the fold induction at 10 µM [4]?
The fold induction at 10 µM was at most 1.

With `Cc1cc(Nc2ncn(-c3cc(F)cc(F)c3)n2)cc(N2CCN([C@@H]3CCOC3)CC2)c1` [Compound 531, 1-(3,5-difluorophenyl)-N-[3-methyl-5-[4-[(3R)-tetrahydrofuran-3-yl]piperazin-1-yl]phenyl]-1,2,4-triazol-3-amine] as the compound, how does the fold induction at 1 µM [4] read?
Its fold induction at 1 µM is 100 to 1000.

And the fold induction at 10 µM [4]?
Its fold induction at 10 µM is 100 to 1000.

Which results are given for `Cc1cc(Nc2ncn(-c3cc(F)cc(F)c3)n2)cc(N2CCC(OC3CCOC3)CC2)c1` (stereo not shown) [Compound 1014, 1-(3,5-difluorophenyl)-N-[3-methyl-5-(4-tetrahydrofuran-3-yloxy-1-piperidyl)phenyl]-1,2,4-triazol-3-amine]?
fold induction at 1 µM [3]: 1 to 10; fold induction at 10 µM [3]: 1 to 10

Which fold induction at 1 µM [4] does the source give for `Cc1cc(Nc2ncn(-c3cc(F)cc(F)c3)n2)cc(N2CC(N3CCCCC3)C2)c1` [Compound 634, 1-(3,5-difluorophenyl)-N-[3-methyl-5-[3-(1-piperidyl)azetidin-1-yl]phenyl]-1,2,4-triazol-3-amine] here?
Its fold induction at 1 µM is 10 to 100.

What about the fold induction at 10 µM [4] of the same compound?
Its fold induction at 10 µM is 10 to 100.

`Cc1cc(N2CCN(C3COC3)CC2)cc(Nc2ncn(-c3ccccc3)n2)c1C` [Compound 237, N-[2,3-dimethyl-5-[4-(oxetan-3-yl)piperazin-1-yl]phenyl]-1-phenyl-1,2,4-triazol-3-amine] was tested. Which fold induction at 1 µM [1] did it give?
Its fold induction at 1 µM is 1000 to 10000.

What about the fold induction at 10 µM [2] of the same compound?
Its fold induction at 10 µM is 100 to 1000.

How did the fold induction at 1 µM [3] turn out when `Cc1cc(Nc2ncn(-c3cc(F)cc(F)c3)n2)cc(NC(C)C2CC2)c1` (stereo not shown) [Compound 1059, N1-(1-cyclopropylethyl)-N3-[1-(3,5-difluorophenyl)-1,2,4-triazol-3-yl]-5-methyl-benzene-1,3-diamine] was run?
Its fold induction at 1 µM is 10 to 100.

What about the fold induction at 10 µM [3] of the same compound?
The fold induction at 10 µM was at most 1.

Which results are given for `Cc1cc(Nc2ncn(-c3cccc(C(F)(F)F)c3)n2)nc(N2CCN(C3COC3)CC2)c1` [Compound 578, 4-methyl-6-[4-(oxetan-3-yl)piperazin-1-yl]-N-[1-[3-(trifluoromethyl)phenyl]-1,2,4-triazol-3-yl]pyridin-2-amine]?
fold induction at 1 µM [4]: 1 to 10; fold induction at 10 µM [4]: 10 to 100

What does the source list for `Cc1cc(Nc2ncn(-c3ccc(C)c(Cl)c3)n2)cc(N2CCN(C3COC3)CC2)c1` [Compound 767, 1-(3-chloro-4-methyl-phenyl)-N-[3-methyl-5-[4-(oxetan-3-yl)piperazin-1-yl]phenyl]-1,2,4-triazol-3-amine]?
fold induction at 1 µM [4]: 1 to 10; fold induction at 10 µM [4]: 10 to 100

Which results are given for `Cc1cc(Nc2ncn(-c3cc(F)cc(F)c3)n2)c(F)c(N2CC3(C2)CN(C(C)C)C3)c1` [Compound 1072, 1-(3,5-difluorophenyl)-N-[2-fluoro-3-(2-isopropyl-2,6-diazaspiro[3.3]heptan-6-yl)-5-methyl-phenyl]-1,2,4-triazol-3-amine]?
fold induction at 1 µM [3]: 1 to 10; fold induction at 10 µM [3]: ≤ 1

Which fold induction at 1 µM [1] does the source give for `CCOCC1CCCN1c1cc(F)cc(-n2cnc(Nc3cc(C)cc(N4CCN(C5COC5)CC4)c3)n2)c1` (stereo not shown) [Compound 41, 1-[3-[2-(ethoxymethyl)pyrrolidin-1-yl]-5-fluoro-phenyl]-N-[3-methyl-5-[4-(oxetan-3-yl)piperazin-1-yl]phenyl]-1,2,4-triazol-3-amine] here?
The fold induction at 1 µM was 10 to 100.

What about the fold induction at 10 µM [2] of the same compound?
Its fold induction at 10 µM is at most 1.

What does the source list for `Cc1cc(Nc2ncn(-c3ccc(F)c(F)c3)n2)cc(N2CCOCC2)n1` [Compound 265, N-[1-(3,4-difluorophenyl)-1,2,4-triazol-3-yl]-2-methyl-6-morpholino-pyridin-4-amine]?
fold induction at 1 µM [1]: 100 to 1000; fold induction at 10 µM [2]: 100 to 1000

`Cc1cc(Nc2ncn(-c3ccccc3)n2)cc(N2CCC(C)(O)C2)c1` (stereo not shown) [Compound 6] was tested. Which fold induction at 1 µM [1] did it give?
The fold induction at 1 µM was 100 to 1000.

What about the fold induction at 10 µM [2] of the same compound?
Its fold induction at 10 µM is 10 to 100.

How did the fold induction at 1 µM [3] turn out when `Cc1cc(Nc2ncn(-c3cc(F)cc(F)c3)n2)c(F)c(NC2(C)COC2)c1` [Compound 869, N3-[1-(3,5-difluorophenyl)-1,2,4-triazol-3-yl]-2-fluoro-5-methyl-N1-(3-methyloxetan-3-yl)benzene-1,3-diamine] was run?
Its fold induction at 1 µM is 10 to 100.

What about the fold induction at 10 µM [3] of the same compound?
Its fold induction at 10 µM is 1 to 10.

What does the source list for `Cc1cc(Nc2ncn(-c3cc(F)cc(F)c3)n2)cc(N2CCOC3(CCC3)C2)c1` [Compound 543, 1-(3,5-difluorophenyl)-N-[3-methyl-5-(9-oxa-6-azaspiro[3.5]nonan-6-yl)phenyl]-1,2,4-triazol-3-amine]?
fold induction at 1 µM [4]: 1 to 10; fold induction at 10 µM [4]: 1 to 10

With `Cc1cc(Nc2ncn(-c3cc(F)cc(F)c3)n2)nc(C2=CCNCC2)c1` [Compound 631, N-[1-(3,5-difluorophenyl)-1,2,4-triazol-3-yl]-4-methyl-6-(1,2,3,6-tetrahydropyridin-4-yl)pyridin-2-amine] as the compound, how does the fold induction at 1 µM [4] read?
Its fold induction at 1 µM is 1 to 10.

And the fold induction at 10 µM [4]?
Its fold induction at 10 µM is 1 to 10.

With `CCN(CC)CC1CN(c2cc(C)cc(Nc3ncn(-c4cc(F)cc(F)c4)n3)c2)CCO1` (stereo not shown) [Compound 1017, N-[3-[2-(diethylaminomethyl)morpholin-4-yl]-5-methyl-phenyl]-1-(3,5-difluorophenyl)-1,2,4-triazol-3-amine] as the compound, how does the fold induction at 1 µM [3] read?
Its fold induction at 1 µM is 10 to 100.

What about the fold induction at 10 µM [3] of the same compound?
Its fold induction at 10 µM is at most 1.

`Cc1cc(Nc2ncn(-c3cc(F)cc(F)c3)n2)cc(O[C@H]2C[C@H](N3CCOCC3)C2)c1` [Compound 752, 1-(3,5-difluorophenyl)-N-[3-methyl-5-(3-morpholinocyclobutoxy)phenyl]-1,2,4-triazol-3-amine] was tested. Which fold induction at 1 µM [4] did it give?
The fold induction at 1 µM was 10 to 100.

And the fold induction at 10 µM [4]?
Its fold induction at 10 µM is 1 to 10.

With `CNC(=O)c1cc(Nc2ncn(-c3cc(F)cc(F)c3)n2)nc(N2CCN(C3COC3)CC2)c1` [Compound 664, 2-[[1-(3,5-difluorophenyl)-1,2,4-triazol-3-yl]amino]-N-methyl-6-[4-(oxetan-3-yl)piperazin-1-yl]pyridine-4-carboxamide] as the compound, how does the fold induction at 1 µM [4] read?
The fold induction at 1 µM was 1 to 10.

And the fold induction at 10 µM [4]?
Its fold induction at 10 µM is 1 to 10.

Which results are given for `CN1CCN(c2cc(N3CCN(C4COC4)CC3)cc(Nc3ncn(-c4cc(F)cc(F)c4)n3)n2)CC1` [Compound 650, N-[1-(3,5-difluorophenyl)-1,2,4-triazol-3-yl]-6-(4-methylpiperazin-1-yl)-4-[4-(oxetan-3-yl)piperazin-1-yl]pyridin-2-amine]?
fold induction at 1 µM [4]: 10 to 100; fold induction at 10 µM [4]: 1 to 10

For `Fc1cc(F)cc(-n2cnc(Nc3cc(C4CC4)nc(N4CCCC4)c3)n2)c1` [Compound 170, 2-cyclopropyl-N-[1-(3,5-difluorophenyl)-1,2,4-triazol-3-yl]-6-pyrrolidin-1-yl-pyridin-4-amine], which fold induction at 1 µM [1] is on record?
The fold induction at 1 µM was 10 to 100.

What about the fold induction at 10 µM [2] of the same compound?
Its fold induction at 10 µM is 100 to 1000.

Which results are given for `Cc1cc(Nc2ncn(-c3cc(F)cc(F)c3)n2)cc(N2CC(C(=O)N3CCOCC3)C2)c1` [Compound 690, [1-[3-[[1-(3,5-difluorophenyl)-1,2,4-triazol-3-yl]amino]-5-methyl-phenyl]azetidin-3-yl]-morpholino-methanone]?
fold induction at 1 µM [4]: 1 to 10; fold induction at 10 µM [4]: 10 to 100

With `CC(F)(F)c1cc(Nc2ncn(-c3ccc(F)c(F)c3)n2)nc(N2CCN(C3COC3)CC2)c1` [Compound 579, 4-(1,1-difluoroethyl)-N-[1-(3,4-difluorophenyl)-1,2,4-triazol-3-yl]-6-[4-(oxetan-3-yl)piperazin-1-yl]pyridin-2-amine] as the compound, how does the fold induction at 1 µM [4] read?
The fold induction at 1 µM was 1 to 10.

What about the fold induction at 10 µM [4] of the same compound?
The fold induction at 10 µM was 1 to 10.

With `Cc1cc(Nc2ncn(-c3ccnc(F)c3)n2)cc(N2CCN(C3COC3)CC2)c1` [Compound 40, 1-(2-fluoro-4-pyridyl)-N-[3-methyl-5-[4-(oxetan-3-yl)piperazin-1-yl]phenyl]-1,2,4-triazol-3-amine] as the compound, how does the fold induction at 1 µM [1] read?
Its fold induction at 1 µM is 1000 to 10000.

What about the fold induction at 10 µM [2] of the same compound?
The fold induction at 10 µM was 10 to 100.

How did the fold induction at 1 µM [1] turn out when `Cc1cc(Nc2ncn(-c3ccccc3)n2)cc(C2CCN(CC(F)F)C2)c1` (stereo not shown) [Compound 273, N-[3-[1-(2,2-difluoroethyl)pyrrolidin-3-yl]-5-methyl-phenyl]-1-phenyl-1,2,4-triazol-3-amine] was run?
Its fold induction at 1 µM is 1000 to 10000.

What about the fold induction at 10 µM [2] of the same compound?
Its fold induction at 10 µM is at most 1.

For `[2H]C1(N2CCN(c3cc(C)cc(Nc4ncn(-c5cc(F)cc(F)c5)n4)c3)CC2)COC1` [Compound 1110, N-[3-[4-(3-deuteriooxetan-3-yl)piperazin-1-yl]-5-methyl-phenyl]-1-(3,5-difluorophenyl)-1,2,4-triazol-3-amine], which fold induction at 1 µM [3] is on record?
Its fold induction at 1 µM is 1000 to 10000.

And the fold induction at 10 µM [3]?
The fold induction at 10 µM was 1 to 10.
